The structures appear in SMILES notation. Structures can show the parent of a compound that is named as a salt. Where two headings read alike, the source gives them in different places.

Data set [1] is described as follows: Phase solubility of prasugrel in aqueous SBE6.5-β-CD or HP4.3-β-CD at pH 4. The format is physicochemical. Conditions: for solubility: thermodynamic from solid. The text has this: The results of the phase solubility study at pH 4 are also depicted graphically in FIG. 3. […] Note that the data obtained for the 10% w/v cyclodextrin derivatives was not included in the best-fit line that appears in FIG. 3.

A short description of data set [2]: Phase solubility of prasugrel in aqueous SBE6.5-β-CD at pH 7.4. The class given is physicochemical. The note with it: for solubility: aqueous solution, pH 7.4, aqueous with cosolvent or surfactant or cyclodextrin, thermodynamic from solid, Prasugrel Solubility. An excerpt: The results of the phase solubility study at pH 7.4 are also depicted graphically in FIG. 2.

Data set [3] concerns platelet aggregation. The note with it: after treatment is stopped; cited from earlier work.
A short description of data set [4]: Stability of prasugrel in 30% w/v SBE6.5-β-CD or HP4.3-β-CD at pH 4 (HPLC). The format is physicochemical.
The nature of data set [5]: Stability of prasugrel in 30% w/v SBE6.5-β-CD at pH 3, 4 and 6 (HPLC). The note with it: for decrease in prasugrel concentration: 30% w/v SBE6.5-β-CD. The class given is physicochemical. As to the method: The solutions were sampled at 0, 2, 7 and 53 hours. […] The data obtained from the stability study is provided graphically in FIG. 5.
Data set [6] has as its system platelet. Conditions: healthy subjects; cited from earlier work.
For data set [7] the following is noted: cited from earlier work.

A word on the solubility: it is the concentration that dissolves in the medium under given conditions. In the case of `CC(=O)Oc1cc2c(s1)CCN(C(C(=O)C1CC1)c1ccccc1F)C2` (racemic) [Prasugrel, 5-[(1RS)-2-cyclopropyl-1-(2-fluorophenyl)-2-oxoethyl]-4,5,6,7-tetrahydrothieno[3,2-c]pyridin-2-yl acetate], the solubility in data set [1] (aqueous HP4.3-β-CD solution, pH 4, aqueous with cosolvent or surfactant or cyclodextrin, Prasugrel Solubility w/ HP4.3-β-CD, HP4.3-β-CD 30% w/v) was found to be 645 µg/mL; in data set [1] (aqueous SBE6.5-β-CD solution, pH 4, aqueous with cosolvent or surfactant or cyclodextrin, Prasugrel Solubility w/ SBE6.5-β-CD, SBE6.5-β-CD 30% w/v), 664 µg/mL; in data set [1] (aqueous solution, pH 4, aqueous buffer, Prasugrel Solubility w/ HP4.3-β-CD, cyclodextrin derivative 0% w/v), 206 µg/mL; in data set [1] (aqueous solution, pH 4, aqueous buffer, Prasugrel Solubility w/ SBE6.5-β-CD, cyclodextrin derivative 0% w/v), 206 µg/mL; in data set [1] (aqueous solution, pH 4, aqueous with cosolvent or surfactant or cyclodextrin, Prasugrel Solubility w/ HP4.3-β-CD, HP4.3-β-CD 5% w/v) it was 256 µg/mL; in data set [1] (aqueous solution, pH 4, aqueous with cosolvent or surfactant or cyclodextrin, Prasugrel Solubility w/ HP4.3-β-CD, HP4.3-β-CD 10% w/v) it was 474 µg/mL. Besides, the solubility is 524 µg/mL in data set [1] (aqueous solution, pH 4, aqueous with cosolvent or surfactant or cyclodextrin, Prasugrel Solubility w/ HP4.3-β-CD, HP4.3-β-CD 20% w/v); 875 µg/mL in data set [1] (aqueous solution, pH 4, aqueous with cosolvent or surfactant or cyclodextrin, Prasugrel Solubility w/ HP4.3-β-CD, HP4.3-β-CD 40% w/v); 268 µg/mL in data set [1] (aqueous solution, pH 4, aqueous with cosolvent or surfactant or cyclodextrin, Prasugrel Solubility w/ SBE6.5-β-CD, SBE6.5-β-CD 5% w/v); 736 µg/mL in data set [1] (aqueous solution, pH 4, aqueous with cosolvent or surfactant or cyclodextrin, Prasugrel Solubility w/ SBE6.5-β-CD, SBE6.5-β-CD 10% w/v); 580 µg/mL in data set [1] (aqueous solution, pH 4, aqueous with cosolvent or surfactant or cyclodextrin, Prasugrel Solubility w/ SBE6.5-β-CD, SBE6.5-β-CD 20% w/v); 927 µg/mL in data set [1] (aqueous solution, pH 4, aqueous with cosolvent or surfactant or cyclodextrin, Prasugrel Solubility w/ SBE6.5-β-CD, SBE6.5-β-CD 40% w/v). Moreover, the solubility in data set [2] (SBE6.5-β-CD 5% w/v) worked out at 54 µg/mL; in data set [2] (SBE6.5-β-CD 10% w/v) it was 124 µg/mL; in data set [2] (SBE6.5-β-CD 20% w/v), 252 µg/mL; in data set [2] (SBE6.5-β-CD 30% w/v), 379 µg/mL; in data set [2] (SBE6.5-β-CD 40% w/v) it was 515 µg/mL. Besides, the “prasugrel solubility as a function of the derivatized cyclodextrin concentration” value in data set [1] (both HP4.3-β-CD and SBE6.5-β-CD, FIG. 3) is reported as “increased linearly”; in data set [2] (SBE6.5-β-CD, FIG. 2), “increased linearly”. Moreover, the “Prasugrel Solubility” value in data set [2] (SBE6.5-β-CD 5% w/v) turned out to be 0.0054% w/v; in data set [2] (SBE6.5-β-CD 10% w/v) it was 0.0124% w/v; in data set [2] (SBE6.5-β-CD 20% w/v), 0.0252% w/v; in data set [2] (SBE6.5-β-CD 30% w/v) it was 0.0379% w/v. In addition, in data set [3], the “time to return to baseline levels of platelet aggregation” value was 7 to 10 days. The “stability in aqueous solution containing a sulfoalkyl ether-β-cyclodextrin versus pH” value in data set [4] is “more stable at pH 4 or less”; in data set [5] (pH 3, 4 and 6 compared), “more stable at pH 4 or less”. In data set [4] (30% w/v solutions, pH 4, 0.1 M phosphate buffer, FIG. 6), the “stability in SBE6.5-β-CD versus HP4.3-β-CD” value is “nearly identical stability”. In addition, the “decrease in prasugrel concentration” value in data set [5] (pH 3, 0.1 M phosphate buffer, after 30 hours) is listed as “less than 10%”; in data set [5] (pH 3, 0.1 M phosphate buffer, after about 55 hours) it was “less than 20%”; in data set [5] (pH 4, 0.1 M phosphate buffer, after 30 hours) it was “less than 10%”; in data set [5] (pH 4, 0.1 M phosphate buffer, after about 55 hours) it was “less than 20%”; in data set [5] (pH 6, 0.1 M phosphate buffer, after 30 hours), “about 20%”; in data set [5] (pH 6, 0.1 M phosphate buffer, after about 55 hours), “about 36%”. Moreover, in data set [6], the “platelet inhibition and response compared to clopidogrel” value was “greater platelet inhibition and more consistent response”.

On to `CC(=O)Oc1cc2c(s1)CCN(C(C(=O)C1CC1)c1ccccc1F)C2` (racemic) [Prasugrel hydrochloride], for which the pKa value in data set [7] was 5.1. Moreover, the solubility result in data set [7] (pH 1-4) is on record as “soluble to slightly soluble”; in data set [7] (pH 5), “very slightly soluble”; in data set [7] (pH 6-7), “practically insoluble”.

The values are drawn from patent publication US10111863B2 (CYDEX PHARMACEUTICALS, INC., priority 2009, dated 2018).
